Measurements from patent publication US20060110401A1, “Mixture of peptides from c and ns3 proteins of the hepatitis c virus and applications thereof” (priority 2002, published 2006).
Where two headings read alike, the source gives them in different places. Marks after values point to notes of the source that are not given here. Residues, ends and D or L forms follow the SMILES beside them.

Key:
[1] = system: T lymphocytes derived from PBMCs from patients chronically infected with HCV; type: cell-based, human
DR1 = assay: DR1
HLA-DR1 (DRB1*0101) = target: T1, HLA-DR1 (DRB1*0101) (Homo sapiens, UniProt P01903+P01911, A100R/D57E/F55L/F60I/F76Y/I96L/L162R/M171V/P40L/Q125E/R42F/V115G/Y59C); assay: biochemical; type: binding; settings: for IC50: DRB1*0101
T1 construct: endogenous in cells; host or cells: homozygous EBV-transformed human B lymphocyte lines; immunopurified with antibody L243

DP402 = assay: DP402
DRB3 = assay: DRB3
DR15 = assay: DR15
HLA-DR7 (DRB1*0701) = HLA-DR7 (DRB1*0701) (Homo sapiens, UniProt P01903+P01911, A100R/A102G/A103Q/D57E/D86V/E43K/F76Y/K127E/L162R/M171V/P40G/Q125H/Q99D/R33Q/R42Y/R54Q/S133A/S66F/T210M/V115G/Y107V/Y59L/Y89S); assay: biochemical; type: binding; settings: read-out: binds with good affinity to DR7
HLA-DRB5 (DRB5*0101) = target: T2, HLA-DRB5 (DRB5*0101) (Homo sapiens, UniProt P01903+Q30154); assay: biochemical; type: binding; settings: read-out: binds with good affinity to DRB5
T2 construct: endogenous in cells; host or cells: homozygous EBV-transformed human B lymphocyte lines; immunopurified with antibody L243

HLA-DR15 (DRB1*1501) = target: T3, HLA-DR15 (DRB1*1501) (Homo sapiens, UniProt P01903+P01911); assay: biochemical; type: binding; settings: DRB1*1501; read-out: binds with good affinity to DR15
T3 construct: endogenous in cells; host or cells: homozygous EBV-transformed human B lymphocyte lines; immunopurified with antibody L243

HLA-DR11 (DRB1*1101) = HLA-DR11 (DRB1*1101) (Homo sapiens, UniProt P01903+P01911, A100R/A169T/A87E/I96F/K41T/L162R/M171V/P40S/Q125H/Q178H/Q39Y/Q99D/R42S/S66Y/T262R/V115G/W38E); assay: biochemical; type: binding; settings: read-out: binds with good affinity to DR11
DRB5 = assay: DRB5
[2] = patient 067, supernatant 48 h, —: not detected
[3] = patient 078, supernatant 48 h, —: not detected
[4] = patient 093, supernatant 48 h, —: not detected
[5] = patient 630, supernatant 48 h, —: not detected
[6] = patient 659, supernatant 48 h, —: not detected
[7] = patient 815, supernatant 48 h, —: not detected
[8] = patient 862, supernatant 48 h, —: not detected

Chain of HLA-DR11 (DRB1*1101) (P01903 26-254 limits assumed, other chains not shown): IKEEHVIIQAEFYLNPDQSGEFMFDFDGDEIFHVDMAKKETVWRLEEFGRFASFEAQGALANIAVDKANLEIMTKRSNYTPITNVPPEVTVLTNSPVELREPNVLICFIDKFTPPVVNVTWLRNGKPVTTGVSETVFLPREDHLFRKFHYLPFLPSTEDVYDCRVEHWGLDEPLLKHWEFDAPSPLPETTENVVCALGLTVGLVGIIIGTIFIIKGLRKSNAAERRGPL

**Q.** How did the IL4 [1] turn out when tetanus toxin [TT] was run?
**A.** 24 pg/mL

**Q.** What does the source list for phytohemagglutinin [PHA]?
**A.** IFNγ [1, 2]: 2447 pg/mL; IL2 [1, 2]: 1337 pg/mL; IL4 [1, 2]: 632 pg/mL; IL10 [1, 2]: 665 pg/mL; IFNγ [1, 3]: 2249 pg/mL; IL2 [1, 3]: 207 pg/mL; IL4 [1, 3]: 55 pg/mL; IL10 [1, 3]: 207 pg/mL; IL2 ([1]; patient 093, assay at 24 h instead of 48 h): 1402* pg/ml; IFNγ [1, 4]: 8542 pg/mL; IL4 [1, 4]: 127 pg/mL; IL10 [1, 4]: 8551 pg/mL; IL2 ([1]; patient 342, supernatant 48 h, —: not detected): 125 pg/mL; IFNγ [1, 5]: 474 pg/mL; IL2 [1, 5]: 18874 pg/mL; IL4 [1, 5]: 251 pg/mL; IL10 [1, 5]: 242 pg/mL; IFNγ [1, 6]: — 187 pg/ml; IL2 [1, 6]: 153 — pg/ml; IL4 [1, 6]: 453 pg/mL; IL10 [1, 6]: 182 pg/mL; IFNγ [1, 7]: 1979 pg/mL; IL2 [1, 7]: 1002 pg/mL; IL4 [1, 7]: 5638 pg/mL; IL10 [1, 7]: 497 pg/mL; IFNγ [1, 8]: 9902 pg/mL; IL2 [1, 8]: 60 pg/mL; IL4 [1, 8]: 9 pg/mL

**Q.** For `CC[C@H](C)[C@H](NC(=O)[C@@H](NC(=O)[C@@H]1CCCN1C(=O)CNC(=O)[C@@H](N)CCCCN)C(C)C)C(=O)N[C@@H](CCC(N)=O)C(=O)N[C@@H](CCSC)C(=O)N[C@@H](Cc1ccc(O)cc1)C(=O)N[C@H](C(=O)N[C@@H](CC(N)=O)C(=O)N[C@H](C(=O)N[C@@H](CC(=O)O)C(=O)N[C@@H](CCC(N)=O)C(=O)N[C@@H](CC(=O)O)C(=O)N[C@@H](CC(C)C)C(=O)N[C@H](C(=O)NCC(=O)N[C@@H](Cc1c[nH]c2ccccc12)C(=O)N1CCC[C@H]1C(=O)N[C@@H](C)C(=O)N1CCC[C@H]1C(=O)N[C@@H](CCC(N)=O)C(=O)NCC(=O)N[C@@H](CO)C(=O)N[C@@H](CCCNC(=N)N)C(=O)N[C@@H](CO)C(=O)O)C(C)C)C(C)C)[C@@H](C)O` [12N 1094-1119] (H-KGPVIQMYTNVDQDLVGWPAPQGSRS-OH; N-terminus and C-terminus assumed), which IC50 (DR1) is on record?
**A.** > 10000 nM

**Q.** What about the IC50 (HLA-DR1 (DRB1*0101); competition with biotinylated tracer HA 306-318, read-out: IC50, binding to HLA-DR1) of the same compound?
**A.** > 10000 nM

**Q.** And the “affinity for HLA-DR1 (in words)” value (HLA-DR1 (DRB1*0101); legend of FIG. 4)?
**A.** low affinity

**Q.** What about the IC50 (DP402) of the same compound?
**A.** 3000 nM

**Q.** What about the IC50 (DRB3) of the same compound?
**A.** > 10000 nM

**Q.** And the IC50 (DR15)?
**A.** 48 nM

**Q.** What does the source list for `CC[C@H](C)[C@H](NC(=O)[C@H](Cc1ccc(O)cc1)NC(=O)CNC(=O)[C@H](CCSC)NC(=O)[C@H](CC(C)C)NC(=O)[C@H](CC(=O)O)NC(=O)[C@H](C)NC(=O)[C@H](Cc1ccccc1)NC(=O)CNC(=O)[C@H](C)NC(=O)[C@@H](N)[C@@H](C)O)C(=O)N1CCC[C@H]1C(=O)N[C@@H](CC(C)C)C(=O)N[C@H](C(=O)NCC(=O)N[C@@H](C)C(=O)N1CCC[C@H]1C(=O)N[C@@H](CC(C)C)C(=O)NCC(=O)NCC(=O)N[C@@H](C)C(=O)N[C@@H](C)C(=O)N[C@@H](CCCNC(=N)N)C(=O)O)C(C)C` [5C 127-149] (H-TAGFADLMGYIPLVGAPLGGAAR-OH; N-terminus and C-terminus assumed)?
**A.** IC50 (HLA-DR7 (DRB1*0701)): < 1000 nM; IC50 (HLA-DRB5 (DRB5*0101)): < 1000 nM; IC50 (HLA-DR15 (DRB1*1501)): < 1000 nM; IC50 (DR1): 2 nM; IC50 (HLA-DR11 (DRB1*1101)): < 1000 nM; IC50 (HLA-DR1 (DRB1*0101); read-out: binds with good affinity to DR1): < 1000 nM; IC50 (DRB3): > 100000 nM; IC50 (DRB5): 3 nM
